Assay: xn = mol fraction of the nth substance listed
Details: 100 kPa

O + CC[NH3+].O=[N+]([O-])[O-]
x1 = 1
Details	viscosity [mPa·s]
293.15 K	0.99
298.15 K	0.89
303.15 K	0.81
308.15 K	0.74
318.15 K	0.6

CC[NH3+].O=[N+]([O-])[O-] + O
viscosity [mPa·s]
Details	x2 = 0	x2 = 0.1088	x2 = 0.2597	x2 = 0.3682	x2 = 0.47	x2 = 0.579	x2 = 0.6776	x2 = 0.7889	x2 = 0.8895	x2 = 0.9499
293.15 K	40.61	–	9.91	–	–	–	3.6	2.4	1.64	1.36
298.15 K	34.49	18.13	8.77	6.77	5.61	4.46	3.22	–	–	1.22
303.15 K	29.65	–	–	6.06	5.04	4	2.9	–	–	1.1
308.15 K	25.76	–	6.9	5.41	–	3.61	2.62	1.78	1.22	1
313.15 K	–	12.2	6.2	4.89	4.08	–	2.38	1.62	1.12	0.92
318.15 K	20.12	10.87	5.59	4.43	–	2.97	2.17	–	1.03	0.84
